Assay results from PubChem BioAssay AID1259407 (Chemical Carcinogenesis Research Information System (CCRIS), 2018).
Calls of active or inactive are those of the source. No rule for the calls is given here.

Test system: CCRIS mutagenicity, Ames/micronucleus/aberration tests
Experiment: CCRIS mutagenicity studies
[1] = Test System: MOUSE LYMPHOMA, Strain/Indicator: L5178Y (TK+/TK-), Metabolic Activation: NONE, Method: SUSPENSION/PLATE
[2] = Test System: AMES SALMONELLA TYPHIMURIUM, Strain/Indicator: TA98, Metabolic Activation: NONE, Method: STANDARD PLATE
[3] = Test System: AMES SALMONELLA TYPHIMURIUM, Strain/Indicator: TA100, Metabolic Activation: NONE, Method: STANDARD PLATE

Measured: mutagenic call

Cc1ccc(C)c(N)c1
inactive: Test System: AMES SALMONELLA TYPHIMURIUM, Strain/Indicator: TA97, Metabolic Activation: HAMSTER, LIVER, S-9, AROCLOR 1254 (10%), Method: PREINCUBATION inactive; negative | Test System: AMES SALMONELLA TYPHIMURIUM, Strain/Indicator: TA97, Metabolic Activation: NONE, Method: PREINCUBATION inactive; negative | Test System: AMES SALMONELLA TYPHIMURIUM, Strain/Indicator: TA97, Metabolic Activation: RAT, LIVER, S-9, AROCLOR 1254 (10%), Method: PREINCUBATION inactive; negative | Test System: AMES SALMONELLA TYPHIMURIUM, Strain/Indicator: TA98, Metabolic Activation: NONE, Method: PREINCUBATION inactive; negative | Test System: AMES SALMONELLA TYPHIMURIUM, Strain/Indicator: TA100, Metabolic Activation: NONE, Method: PREINCUBATION inactive; negative | Test System: AMES SALMONELLA TYPHIMURIUM, Strain/Indicator: TA100, Metabolic Activation: RAT, LIVER, S-9, AROCLOR 1254 (10%), Method: PREINCUBATION inactive; negative | Test System: AMES SALMONELLA TYPHIMURIUM, Strain/Indicator: TA1535, Metabolic Activation: HAMSTER, LIVER, S-9, AROCLOR 1254 (10%), Method: PREINCUBATION inactive; negative | Test System: AMES SALMONELLA TYPHIMURIUM, Strain/Indicator: TA1535, Metabolic Activation: NONE, Method: PREINCUBATION inactive; negative | Test System: AMES SALMONELLA TYPHIMURIUM, Strain/Indicator: TA1535, Metabolic Activation: RAT, LIVER, S-9, AROCLOR 1254 (10%), Method: PREINCUBATION inactive; negative | Test System: AMES SALMONELLA TYPHIMURIUM, Strain/Indicator: TA1537, Metabolic Activation: RAT, LIVER, S-9, AROCLOR 1254 (10%), Method: PREINCUBATION inactive; negative
active: Test System: AMES SALMONELLA TYPHIMURIUM, Strain/Indicator: TA98, Metabolic Activation: HAMSTER, LIVER, S-9, AROCLOR 1254 (10%), Method: PREINCUBATION active; positive | Test System: AMES SALMONELLA TYPHIMURIUM, Strain/Indicator: TA98, Metabolic Activation: RAT, LIVER, S-9, AROCLOR 1254 (10%), Method: PREINCUBATION active; positive | Test System: AMES SALMONELLA TYPHIMURIUM, Strain/Indicator: TA100, Metabolic Activation: HAMSTER, LIVER, S-9, AROCLOR 1254 (10%), Method: PREINCUBATION active; positive | Test System: AMES SALMONELLA TYPHIMURIUM, Strain/Indicator: TA1537, Metabolic Activation: HAMSTER, LIVER, S-9, AROCLOR 1254 (10%), Method: PREINCUBATION active; positive

CC(=O)N(O)CCCCCNC(=O)CCC(=O)N(O)CCCCCNC(=O)CCC(=O)N(O)CCCCCN
active: [1] active; positive. reevaluation of results: positive | Test System: MOUSE LYMPHOMA, Strain/Indicator: L5178Y (TK+/TK-), Metabolic Activation: RAT, LIVER, S-9, AROCLOR 1254, Method: SUSPENSION/PLATE active; positive. reevaluation of results: positive

CC1(C)C[C@@H]2[C@@]34C[C@]3(C(C=O)=C[C@]2(O)C1)[C@@H](O)OC4=O
active: [2] active; positive | [3] active; positive | Test System: AMES SALMONELLA TYPHIMURIUM, Strain/Indicator: TA2637, Metabolic Activation: NONE, Method: STANDARD PLATE active; positive

Nc1ccc2ccccc2c1N=Nc1ccccc1
inactive: Test System: AMES SALMONELLA TYPHIMURIUM, Strain/Indicator: TA98, Metabolic Activation: HAMSTER, LIVER, S-9, AROCLOR 1254 (2.5-20%), Method: PREINCUBATION inactive; negative | Test System: AMES SALMONELLA TYPHIMURIUM, Strain/Indicator: TA98, Metabolic Activation: HAMSTER, LIVER, S-9, AROCLOR 1254, Method: STANDARD PLATE inactive; negative | [2] inactive; negative | Test System: AMES SALMONELLA TYPHIMURIUM, Strain/Indicator: TA98, Metabolic Activation: RAT, LIVER, S-9, AROCLOR 1254, Method: STANDARD PLATE inactive; negative | Test System: AMES SALMONELLA TYPHIMURIUM, Strain/Indicator: TA100, Metabolic Activation: HAMSTER, LIVER, S-9, AROCLOR 1254 (2.5-20%), Method: PREINCUBATION inactive; negative | Test System: AMES SALMONELLA TYPHIMURIUM, Strain/Indicator: TA100, Metabolic Activation: HAMSTER, LIVER, S-9, AROCLOR 1254, Method: STANDARD PLATE inactive; negative | [3] inactive; negative | Test System: AMES SALMONELLA TYPHIMURIUM, Strain/Indicator: TA100, Metabolic Activation: RAT, LIVER, S-9, AROCLOR 1254, Method: STANDARD PLATE inactive; negative | Test System: AMES SALMONELLA TYPHIMURIUM, Strain/Indicator: TA102, Metabolic Activation: HAMSTER, LIVER, S-9, AROCLOR 1254 (10%), Method: PREINCUBATION inactive; negative | Test System: AMES SALMONELLA TYPHIMURIUM, Strain/Indicator: TA102, Metabolic Activation: NONE, Method: PREINCUBATION inactive; negative | Test System: AMES SALMONELLA TYPHIMURIUM, Strain/Indicator: TA102, Metabolic Activation: RAT, LIVER, S-9, AROCLOR 1254 (10%), Method: PREINCUBATION inactive; negative | Test System: AMES SALMONELLA TYPHIMURIUM, Strain/Indicator: TA1535, Metabolic Activation: HAMSTER, LIVER, S-9, AROCLOR 1254, Method: STANDARD PLATE inactive; negative | Test System: AMES SALMONELLA TYPHIMURIUM, Strain/Indicator: TA1535, Metabolic Activation: NONE, Method: STANDARD PLATE inactive; negative | Test System: AMES SALMONELLA TYPHIMURIUM, Strain/Indicator: TA1535, Metabolic Activation: RAT, LIVER, S-9, AROCLOR 1254, Method: STANDARD PLATE inactive; negative | Test System: AMES SALMONELLA TYPHIMURIUM, Strain/Indicator: TA1537, Metabolic Activation: HAMSTER, LIVER, S-9, AROCLOR 1254, Method: STANDARD PLATE inactive; negative | Test System: AMES SALMONELLA TYPHIMURIUM, Strain/Indicator: TA1537, Metabolic Activation: NONE, Method: STANDARD PLATE inactive; negative | Test System: AMES SALMONELLA TYPHIMURIUM, Strain/Indicator: TA1537, Metabolic Activation: RAT, LIVER, S-9, AROCLOR 1254, Method: STANDARD PLATE inactive; negative | Test System: AMES SALMONELLA TYPHIMURIUM, Strain/Indicator: TA1538, Metabolic Activation: HAMSTER, LIVER, S-9, AROCLOR 1254, Method: STANDARD PLATE inactive; negative | Test System: AMES SALMONELLA TYPHIMURIUM, Strain/Indicator: TA1538, Metabolic Activation: NONE, Method: STANDARD PLATE inactive; negative | Test System: AMES SALMONELLA TYPHIMURIUM, Strain/Indicator: TA1538, Metabolic Activation: RAT, LIVER, S-9, AROCLOR 1254, Method: STANDARD PLATE inactive; negative
active: [1] active; positive. reevaluation of results: equivocal
